Like-named read-outs stand apart in the source and are kept apart here.
What was measured:
NDM-1 = NDM-1 (Klebsiella pneumoniae, UniProt C7C422); test: biochemical; assay type: biochemical
IMP-1 = IMP-1 (Serratia marcescens, UniProt P52699); test: biochemical; assay type: biochemical; settings: read-out: IMP-1 IC50
VIM-1 = VIM-1 (Pseudomonas aeruginosa (strain ATCC 15692 / DSM 22644 / CIP 104116 / JCM 14847 / LMG 12228 / 1C / PRS 101 / PAO1), UniProt A0A0F7KYQ8); test: Enzyme activity: determination of IC50, fluorescence assay with CCF2-FA substrate (VIM-1); assay type: biochemical
[1] = tested on: Escherichia coli expressing NDM-1 (CLB30016); test: Antibiotic potentiation activity: synergistic concentration (MITC95) with imipenem, OD600 growth; assay type: cell-based; settings: for Escherichia coli expressing NDM-1 (CLB 30016) MITC95: concentration giving 95% inhibition of bacterial growth
In short: (§1)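 Each strain, suspended in saline from overnight colonies and diluted 1:100 into 1.1× CAMHB, is dosed with imipenem at 4 μg/ml (or 1 μg/ml) plus compound, incubated 22–24 h at 35 °C and read by absorbance.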

[2] = tested on: Klebsiella pneumoniae expressing VIM-1 (IHMA599644); test: as above; assay type: cell-based; settings: for Klebsiella pneumoniae expressing VIM-1 (IHMA 599644) MITC95: concentration giving 95% inhibition of bacterial growth
In short: as §1

[3] = tested on: Serratia marcescens expressing IMP-1 (CL5741); test: as above; assay type: cell-based; settings: for Serratia marcescens expressing IMP-1 (CL5741) MITC95: concentration giving 95% inhibition of bacterial growth
In short: as §1

[4] = NDM-1 enzyme, CCF2-FA substrate, read-out: NDM-1 IC50
[5] = IMP-1 enzyme, CCF2-FA substrate
[6] = VIM-1 enzyme, CCF2-FA substrate, read-out: VIM-1 IC50
[7] = (CLB30016, NDM-1), 95% growth inhibition
[8] = Klebsiella pneumoniae IHMA599644 (VIM-1), 95% growth inhibition
[9] = Serratia marcescens CL5741 (IMP-1), 95% growth inhibition
[10] = fluorescence assay with CCF2-FA substrate, read-out: NDM-1 IC50
[11] = fluorescence assay with CCF2-FA substrate
[12] = fluorescence assay with CCF2-FA substrate, read-out: VIM-1 IC50
[13] = CLB30016 (NDM-1), 95% inhibition of bacterial growth
[14] = IHMA599644 (VIM-1), 95% inhibition of bacterial growth
[15] = CL5741 (IMP-1), 95% inhibition of bacterial growth
[16] = NDM-1 enzyme, CCF2-FA fluorescence assay, read-out: NDM-1 IC50
[17] = IMP-1 enzyme, CCF2-FA fluorescence assay
[18] = Escherichia coli expressing NDM-1 (CLB30016), 95% growth inhibition
[19] = Klebsiella pneumoniae expressing VIM-1 (IHMA599644), 95% growth inhibition
[20] = Serratia marcescens expressing IMP-1 (CL5741), 95% growth inhibition
[21] = VIM-1 IC50, fluorescence assay with CCF2-FA substrate
[22] = VIM-1 enzyme, CCF2-FA fluorescence assay, read-out: VIM-1 IC50

NDM-1, sequence (C7C422 whole entry, looked up, species assumed): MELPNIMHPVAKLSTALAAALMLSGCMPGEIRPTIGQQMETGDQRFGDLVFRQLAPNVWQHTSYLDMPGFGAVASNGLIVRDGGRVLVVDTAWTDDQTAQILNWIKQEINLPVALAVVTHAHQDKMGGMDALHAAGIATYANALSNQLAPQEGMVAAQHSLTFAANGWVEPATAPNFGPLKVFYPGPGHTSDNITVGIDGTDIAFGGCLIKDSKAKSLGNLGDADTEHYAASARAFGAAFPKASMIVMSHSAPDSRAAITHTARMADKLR
IMP-1, sequence (P52699 whole entry, looked up): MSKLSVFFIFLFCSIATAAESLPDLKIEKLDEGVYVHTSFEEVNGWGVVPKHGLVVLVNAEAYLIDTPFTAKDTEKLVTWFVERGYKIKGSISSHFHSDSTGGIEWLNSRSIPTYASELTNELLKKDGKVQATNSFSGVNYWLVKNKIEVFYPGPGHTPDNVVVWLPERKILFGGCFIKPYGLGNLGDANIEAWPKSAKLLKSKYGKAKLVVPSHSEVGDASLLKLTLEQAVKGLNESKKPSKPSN

Structure (SMILES)	IC50 (NDM-1; [10]) [nM]	IC50 (IMP-1; [11]) [nM]	IC50 (NDM-1; [16]) [nM]	IC50 (IMP-1; [17]) [nM]	Escherichia coli MITC95 [1, 18] [µM]	Klebsiella pneumoniae MITC95 [2, 19] [µM]	Serratia marcescens MITC95 [3, 20] [µM]	IC50 (VIM-1; [22]) [nM]	further results
CN(C)C1CCN(c2ccc(-c3cccc(S(N)(=O)=O)c3-c3nnn[nH]3)cn2)C1 (stereo not drawn) [Example 627, 3-[6-[3-(dimethylamino)pyrrolidin-1-yl]-3-pyridyl]-2-(1H-tetrazol-5-yl)benzenesulfonamide]									IC50 (NDM-1; [4]): 32.9 nM; IC50 (IMP-1; [5]): 415 nM; IC50 (VIM-1; [6]): 830 nM; Escherichia coli MITC95 [1, 7]: 1.172 µM; Klebsiella pneumoniae MITC95 [2, 8]: 100 µM; Serratia marcescens MITC95 [3, 9]: 12.5 µM
NCCCCN1CCN(c2ccc(C(F)(F)F)c(S(N)(=O)=O)c2-c2nnn[nH]2)CC1 [Example 765, 3-[4-(4-aminobutyl)piperazin-1-yl]-2-(1H-tetrazol-5-yl)-6-(trifluoromethyl) benzenesulfonamide]	93.3	131							IC50 (VIM-1; [12]): 125 nM; Escherichia coli MITC95 [1, 13]: 6.25 µM; Klebsiella pneumoniae MITC95 [2, 14]: 25 µM; Serratia marcescens MITC95 [3, 15]: 3.125 µM
NS(=O)(=O)c1nccc(N2CCC(c3nnc4ccccn34)CC2)c1-c1nnn[nH]1 [Example 241, 3-(1H-tetrazol-5-yl)-4-(4-[1,2,4]triazolo[4,3-a]pyridin-3-ylpiperidin-1-yl)pyridine-2-sulfonamide]			67.7	335	1.563	>200	12.5		IC50 (VIM-1; VIM-1 IC50, VIM-1 enzyme, CCF2-FA fluorescence assay): 774 nM
Nc1cccc2c(-c3ccc(C(F)(F)F)c(S(N)(=O)=O)c3-c3nn[nH]n3)cc(C(=O)O)nc12 [Example 526, 8-Amino-4-(3-sulfamoyl-2-(2H-tetrazol-5-yl)-4-(trifluoromethyl)phenyl)quinoline-2-carboxylic acid]									IC50 (NDM-1; [4]): 1.85 nM; IC50 (IMP-1; [5]): 4.58 nM; IC50 (VIM-1; [6]): 1.59 nM; Escherichia coli MITC95 [1, 7]: 25 µM; Klebsiella pneumoniae MITC95 [2, 8]: 50 µM; Serratia marcescens MITC95 [3, 9]: 100 µM
COc1cc(-c2cccc(S(N)(=O)=O)c2-c2nnn[nH]2)ccn1 [Example 135, 3-(2-methoxypyridin-4-yl)-2-(1H-tetrazol-5-yl)benzenesulfonamide]	4.47	62.6							IC50 (VIM-1; [12]): 61.9 nM; Escherichia coli expressing NDM-1 (CLB 30016) MITC95 [1]: 1.172 µM; Klebsiella pneumoniae expressing VIM-1 (IHMA 599644) MITC95 [2]: 18.75 µM; Serratia marcescens expressing IMP-1 (CL5741) MITC95 [3]: 1.172 µM
Nc1nnc(C2CCN(c3ccc(C(F)(F)F)c(S(N)(=O)=O)c3-c3nnn[nH]3)CC2)s1 [Example 764, 3-[4-(5-amino-1,3,4-thiadiazol-2-yl)piperidin-1-yl]-2-(1H-tetrazol-5-yl)-6-(trifluoromethyl) benzenesulfonamide]	273	68.7							IC50 (VIM-1; [21]): 27.7 nM; Escherichia coli MITC95 [1, 13]: 100 µM; Klebsiella pneumoniae MITC95 [2, 14]: >200 µM; Serratia marcescens MITC95 [3, 15]: 50 µM
NS(=O)(=O)c1cccc(-c2ccc(CN3CCC(O)CC3)cc2)c1-c1nnn[nH]1 [Example 394, 4′-[(4-hydroxypiperidin-1-yl)methyl]-2-(1H-tetrazol-5-yl)biphenyl-3-sulfonamide]			11.3	195	2.344	>200	3.125	658	
Nc1nc2c(-c3ccc(C(F)(F)F)c(S(N)(=O)=O)c3-c3nnn[nH]3)cccc2s1 [Example 423, 3-(2-amino-1,3-benzothiazol-4-yl)-2-(2H-tetrazol-5-yl)-6-(trifluoromethyl)benzenesulfonamide]			0.378	1.29	1.086	3.125	0.125	0.711	
NCc1ccc2cc(-c3cccc(S(N)(=O)=O)c3-c3nn[nH]n3)ccc2n1 [Example 286, 3-(2-(aminomethyl)quinolin-6-yl)-2-(2H-tetrazol-5-yl)benzenesulfonamide]			6.14	204	0.7813	3.125	3.125	12.7	
NS(=O)(=O)c1c(CC(F)(F)F)ccc(-c2ccc(C3CCNCC3)cc2)c1-c1nn[nH]n1 [Example 458, 4′-(piperidin-4-yl)-2-(2H-tetrazol-5-yl)-4-(2,2,2-trifluoroethyl)-[1,1′-biphenyl]-3-sulfonamide]			22.1	2.39	3.125	3.125	0.125	2.12	
CN(c1ccnc(S(N)(=O)=O)c1-c1nnn[nH]1)C1CCCCC1 [Example 232, 4-[cyclohexyl(methyl)amino]-3-(1H-tetrazol-5-yl)pyridine-2-sulfonamide]	892	7640							IC50 (VIM-1; [21]): 166 nM; Escherichia coli expressing NDM-1 (CLB 30016) MITC95 [1]: 50 µM; Klebsiella pneumoniae expressing VIM-1 (IHMA 599644) MITC95 [2]: 150 µM; Serratia marcescens expressing IMP-1 (CL5741) MITC95 [3]: >200 µM
CNCCN(C)c1ccc(-c2cccc(S(N)(=O)=O)c2-c2nnn[nH]2)cn1 [Example 637, 3-[6-[methyl-[2-(methylamino)ethyl]amino]-3-pyridyl]-2-(1H-tetrazol-5-yl)benzenesulfonamide]									IC50 (NDM-1; [4]): 52 nM; IC50 (IMP-1; [5]): 925 nM; IC50 (VIM-1; VIM-1 IC50, VIM-1 enzyme, CCF2-FA substrate): 453 nM; Escherichia coli MITC95 [1, 7]: 2.344 µM; Klebsiella pneumoniae MITC95 [2, 8]: 50 µM; Serratia marcescens MITC95 [3, 9]: 25 µM
N=C(N)NC[C@H]1CC[C@H](c2ccc(C(F)(F)F)c(S(N)(=O)=O)c2-c2nnn[nH]2)CC1 [Example 503, 3-(trans 4-(guanidinomethyl)cyclohexyl)-2-(1H-tetrazol-5-yl)-6-(trifluoromethyl)benzenesulfonamide]									IC50 (NDM-1): 1.14 nM; IC50 (IMP-1; [5]): 4.2 nM; IC50 (VIM-1; [6]): 0.183 nM; Escherichia coli MITC95 [1, 7]: 0.1953 µM; Klebsiella pneumoniae MITC95 [2, 8]: 0.7813 µM; Serratia marcescens MITC95 [3, 9]: 0.1953 µM
NS(=O)(=O)c1c(C(F)(F)F)ccc(-c2ccc(C3CN(CCC4CCNCC4)C3)cc2)c1-c1nnn[nH]1 [Example 803, 4′-[1-(2-piperidin-4-ylethyl)azetidin-3-yl]-2-(1H-tetrazol-5-yl)-4-(trifluoromethyl)biphenyl-3-sulfonamide]	4.87	13							IC50 (VIM-1; [21]): 13.2 nM; Escherichia coli MITC95 [1, 13]: 6.25 µM; Klebsiella pneumoniae MITC95 [2, 14]: 100 µM; Serratia marcescens MITC95 [3, 15]: 6.25 µM
CC(C)c1ccc(C(F)(F)F)c(S(N)(=O)=O)c1-c1nnn[nH]1 [Example 488, 3-isopropyl-2-(1H-tetrazol-5-yl)-6-(trifluoromethyl)benzenesulfonamide]			7.9	18.8	1.563	4.688	0.7813	3.44	
NS(=O)(=O)c1cccc(-c2ccc(CN3CCC(CCO)C3)cc2)c1-c1nnn[nH]1 (stereo not drawn) [Example 393, 4′-{[3-(2-hydroxyethyl)pyrrolidin-1-yl]methyl}-2-(1H-tetrazol-5-yl)biphenyl-3-sulfonamide]			10.8	338	1.563	200	4.688	509	
